Measurements reported in US20250099420A1, “SMALL MOLECULE MODULATORS OF GPR139 COMPLEX” (University of Florida Research Foundation, Incorporated, priority 2022, published 2025).

How the values were obtained:
[1] = tested on: parental HEK cells; experiment: HEK parental Antagonist Counterscreen Assay (non-transfected cells, acetylcholine control); type: cell-based
Description: C. […] The HEK parental counterscreen utilized the same cells but not transfected with the plasmid. The agonist and antagonist modes were run the same way as the primary screen but acetylcholine was used in place of GPR139 agonist as the control compound.
The HEK parental counterscreen utilized the same cells but not transfected with the plasmid. The antagonist modes assays utilized the cells being plated in the 1536 well plate overnight in growth media prior to dye loading in PDL coated plates and acetylcholine was used in place of GPR139 agonist as the control compound.
(§1) The HEK parental counterscreen utilized the same cells but not transfected with the plasmid. Acetylcholine was used in place of GPR139 agonist as the control compound. The cells were plated overnight, similar to the HEK antagonist counterscreen protocol.
The HEK parental counterscreens utilized the same cells but not transfected with the plasmid. Acetylcholine was used in place of GPR139 agonist as the control compound. The cells were plated overnight, similar to the HEK antagonist counterscreen protocol.
(§2) For each test compound, percent activation was plotted against compound concentration. A four parameter equation describing a sigmoidal dose-response curve was then fitted with adjustable baseline using Assay Explorer software (Symyx Technologies Inc.).

[2] = target: T1, GPR139 (Homo sapiens, UniProt Q6DWJ6)
T1 sequence (Q6DWJ6 1-353): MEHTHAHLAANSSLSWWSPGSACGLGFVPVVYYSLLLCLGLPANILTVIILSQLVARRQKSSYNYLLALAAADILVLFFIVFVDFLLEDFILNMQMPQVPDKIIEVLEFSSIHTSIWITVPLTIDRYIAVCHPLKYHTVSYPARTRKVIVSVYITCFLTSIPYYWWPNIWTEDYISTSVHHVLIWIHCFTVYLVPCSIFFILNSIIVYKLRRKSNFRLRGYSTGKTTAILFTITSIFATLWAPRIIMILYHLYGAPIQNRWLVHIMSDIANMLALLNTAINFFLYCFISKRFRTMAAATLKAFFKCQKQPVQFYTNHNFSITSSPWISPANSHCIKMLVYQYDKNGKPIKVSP
Description: (§3) GPR activity was assessed using a calcium detection assay. GPR139 agonists stimulate an increase in intracellular calcium in HEK-GPR139 cells. Agonists increase the release of intracellular calcium, while antagonists decrease the release of intracellular calcium, as compared to an EC80 stimulation of the know agonist S-JNJ-63533054. The positive control for the agonist mode was cells treated with EC100 of known agonist S-JNJ-63533054. Negative control samples were treated with DMSO. The antagonist high control in cells was EC80 of S-JNJ-63533054+IC100 S-JNJ-3792165, while cells were treated with EC80 of S-JNJ-63533054+DMSO for the low control. Intracellular calcium was measured using Calcium 5.
(§4) HEK cells were transfected the DNA encoding GPR139 and incubated for 24 hours. 3000 cells/well in 3 μL HEPES and 1% DMSO were seeded into 1536-well plates. 3 μL Calcium 5 was then added to each well and cells were incubated for 60 min. at 37° C. in 5% CO2 and 95% relative humidity. Cells were pretreated with 50 nL DMSO (5 min. at room temperature in the dark) to stabilize response and desensitize cells to DMSO. A 5 second basal read was recorded and compounds in 30 nL were added to the cells, followed by a 150 second read.
(§5) B. Antagonist Mode: The “High Control” represented wells containing cells with GPR139+Antagonist IC100+Agonist EC80. “Low Control” represented wells containing cells with GPR139 with EC100 Agonist. “0% control” and sample field represented wells containing cells with GPR139 with EC80 Agonist with DMSO or compounds. The Z′ and S:B for this assay were calculated using the High Control and Low Control wells.
as §1
(§6) The GPR139 Agonist and Antagonist titration assays employed the same reagents, protocols, and detection systems as the primary assays, but tested each as 10 point dose response starting at 676 nM concentration in triplicate with 1:3 dilutions. The HEK parental counterscreens utilized the same cells but not transfected with the plasmid. Acetylcholine was used in place of GPR139 agonist as the control compound. The cells were plated overnight, similar to the HEK antagonist counterscreen protocol.
as §2

[3] = target: T1, GPR139; experiment: GPR139 Agonist titration / agonist counterscreen assay (calcium detection, HEK-GPR139 cells); type: cell-based; set-up: expressed in transfected cells; host or cells: HEK Aequorin cells, Maxcyte transient transfection; settings: agonist counterscreen of the antagonists; for EC50: scientific notation, molarity, read-out: GRP139 Agonist activity EC50
Description: GPR activity was assessed using a calcium detection assay. […] Negative control samples were treated with DMSO. […] Intracellular calcium was measured using Calcium 5.

[4] = target: T1, GPR139; experiment: GPR139 Antagonist titration assay (calcium detection, HEK-GPR139 cells, vs EC80 of S-JNJ-63533054); settings: for GPR139 Antagonist Activity Averaged Max % Response (±St. Dev.): activity relative to known control; for GPR139 Antagonist Activity Hill Slope: fitted dose-response curve
Description: as §3, §4, §5, §1, §6, §2

Row | Compound | HEK antagonist activity Averaged Max % Response (±St. Dev.) [1] [%] | GPR139 Antagonist Activity Lipophilic Efficiency (logD) [2] | GPR139 Antagonist Activity Lipophilic Efficiency (logP) [2] | GRP139 Agonist activity Averaged Max % Response (±St. Dev.) [3] [%] | EC50 [3] [µM] | GPR139 Antagonist Activity Ligand Efficiency [4] | GPR139 Antagonist Activity Averaged Max % Response (±St. Dev.) [4] [%] | GPR139 Antagonist Activity Hill Slope [4] | GRP139 Agonist activity Hill Slope [3]
1 | Cc1ccc(-c2cn(-c3ccccc3)c(SCC(=O)Nc3ccccc3C)n2)cc1 [SR-01000555444] | 6.69 ± 8.37 | −1.5E+0 | −1.5E+0 | 4.27 ± 6.30 | > 11 | 0.24 | 69.32 ± 5.67 | 1.62 | 
2 | Cc1ccc(-n2cc(-c3ccccc3)nc2SCC(=O)Nc2ccccc2)cc1 [SR-01000555455] | 6.61 ± 6.46 | −1.3E+0 | −1.3E+0 | 2.28 ± 5.10 | > 13.3 | 0.24 | 52.97 ± 3.58 | 0.71 | 
3 | Cc1ccc(-n2cc(-c3ccccc3)nc2SCC(=O)Nc2cccc(C)c2C)cc1 [SR-01000555460] | 8.34 ± 10.04 | −1.9E+0 | −1.9E+0 | 7.97 ± 3.98 | > 11.9 | 0.24 | 69.58 ± 6.90 | 1.30 | 
4 | Cc1ccc(-n2cc(-c3ccccc3)nc2SCC(=O)Nc2ccc(F)cc2)cc1 [SR-01000555461] | 0.37 ± 8.79 | −954.3E−3 | −954.4E−3 | 5.29 ± 2.24 | > 14 | 0.25 | 77.29 ± 7.71 | 1.40 | 
5 | Cc1cccc(-n2cc(-c3ccccc3)nc2SCC(=O)Nc2ccccc2C)c1 [SR-01000555475] | 9.07 ± 0.74 | −768.6E−3 | −768.8E−3 | 13.90 ± 4.27 | > 13.2 | 0.28 | 90.42 ± 3.10 | 0.57 | 
6 | Cc1ccc(CNC(=O)CSc2nc3ccsc3c(=O)n2NC(=O)c2cccc(Br)c2)cc1 [SR-01000564946] | 30.88 ± 11.77 | 0.81 | 0.81 | 1.62 ± 7.06 | > 12.1 | 0.24 | 86.39 ± 3.49 | 0.71 | 
7 | O=C(NCCCN1CCCC1=O)c1ccc(NCc2ccc(F)cc2)c(S(=O)(=O)Nc2cccc(C(F)(F)F)c2)c1 [SR-01000575726] | 42.61 ± 24.54 | 2.05 | 1.85 | 4.26 ± 2.46 | > 13.9 | 0.18 | 68.96 ± 6.17 | 0.63 | 
8 | CCc1ccccc1NC(=O)CSc1nnc(-c2ccccc2)c(-c2ccccc2)n1 [SR-01000581835] | 8.20 ± 4.35 | −850.1E−3 | −850.1E−3 | 9.47 ± 9.31 | > 12.1 | 0.23 | 81.12 ± 9.72 | 0.67 | 
9 | COc1ccc(C2=NN(C3CCCCCC3)C(=O)[C@@H]3CC=CC[C@@H]23)cc1OCCCCOc1ccc(-c2nn[nH]n2)cc1 [SR-05000022540] | 6.21 ± 10.10 | −546.E−3 | −780.8E−3 | 96.44 ± 1.50 | 13.2 | 0.18 | 94.71 ± 3.14 | 0.39 | 10.54
